According to patent US5162203A, “Methods of measuring isozymes and isozyme classes of alcohol dehydrogenase” (President and Fellows of Harvard College, priority 1989, dated 1992):
Read-outs that look alike come from different tables or passages of the source. Blank lines part the entries; values can stand above or below the compound they belong to.

How the values were obtained:
β2 β2 ADH (Class I) = biological target: T1, β2 β2 ADH (Class I) (Homo sapiens, UniProt P00325); assay: Inhibition of β2β2 ADH; format: biochemical; details: 0.2 mM 4-MeP
T1 construct: beta2 allele (ADH1B*2)
T1 sequence (P00325 2-375): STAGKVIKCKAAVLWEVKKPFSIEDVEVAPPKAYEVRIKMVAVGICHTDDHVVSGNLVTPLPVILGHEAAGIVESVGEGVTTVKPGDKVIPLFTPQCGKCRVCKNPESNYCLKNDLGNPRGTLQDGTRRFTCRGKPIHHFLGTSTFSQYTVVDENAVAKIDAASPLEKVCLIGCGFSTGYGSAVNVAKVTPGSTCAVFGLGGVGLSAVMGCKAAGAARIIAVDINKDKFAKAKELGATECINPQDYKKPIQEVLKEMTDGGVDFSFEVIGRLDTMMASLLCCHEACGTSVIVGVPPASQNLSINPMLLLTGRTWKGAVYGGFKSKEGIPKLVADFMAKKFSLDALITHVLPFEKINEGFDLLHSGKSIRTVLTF
Experimental: (§1) The linear increase of fluorescence was then recorded for 1-10 minutes, until 0.03-1 μM of substrate was consumed. Larger substrate consumption was not found to be desirable (described in subpart (c) below). After this period the instrument sensitivity setting was reduced 10-30 fold, the signal compensated once again by zero suppression (see part 6 above), and 60 μl of 200-400 μM product (e.g., product IB or IIB) was added to provide an internal standard. The added product fluorescence intensity was then measured Fluorescence measurements were optimized for samples with low activity (<1 nM/minute). For samples with higher activity, repeat measurements were made with the serum volume reduced from 60 μl to 10 μl. Rates measured in the presence of the 0.2 mM ADH inhibitors. 4-MeP or 4-PeP, were made by adding 50 μl of 12 mM inhibitor to the cuvette prior to the assay buffer, and the reaction was carried out as above.
(§2) Aldehyde reduction and 4-MeP inhibition are near optimal at pH 7.6 which was adopted for the study of serum samples.

[1] = system: ADH activity in human serum; assay: Inhibition of ADH activity in human sera; format: biochemical; details: for effect on rate of reduction of IA in sera with elevated ADH: 0.5 mM
Experimental: as §1
(§3) The activities of a large group of serum samples were further examined for inhibition by 4-MeP and 4-PeP, both at 0.2 mM, a concentration that abolishes 95-98% of the Class I and Class II ADH activity as shown in Table IV above. […] In contrast, 4-PeP inhibited activity toward IA by greater than […] and IIA by more than 90% in virtually all samples examined (FIG. 8C). The total number of samples examined was 83 for FIG. 8A, 105 for FIG. 8B, and 44 for FIG. 8C.
(§4) Sera whose ADH activity was increased beyond those seen normally were selected based on the modified NDMA assay as described in part 7 of Example 1. In approximately 3% of several hundred random hospital patients tested, elevations in ADH activity were observed using the modified NDMA assay described in part 7 of Example 1. These sera with elevated levels (>2 NDMA mU/ml) were then tested by the fluorometric assay described in part 8 of Example 1 using IA as substrate. Class I ADH activity was detected in nearly all of those classified as having elevated ADH levels by the NDMA criterion. The fluorescent reaction product was analyzed and confirmed to be the alcohol ADH product IB. The observed reaction was inhibited >95% by 3 mM 4-MeP; this confirmed that the activity observed was due primarily to Class I ADH. The rate of reduction of IA was also diminished by the addition of high concentrations (>>Km) of typical ADH substrates, e.g., 0.5 mM benzaldehyde or butyraldehyde, presumably due to competition. […] The optimal dilution for routine measurements was approximately 50-fold.

[2] = biological target: T2, ADH activity in human serum (Homo sapiens, UniProt P08319); assay: Inhibition of ADH activity in human sera; format: biochemical; details: 17 healthy volunteers
T2 construct: from tissue; host or cells: human serum of patients and volunteers
T2 sequence (P08319 whole entry): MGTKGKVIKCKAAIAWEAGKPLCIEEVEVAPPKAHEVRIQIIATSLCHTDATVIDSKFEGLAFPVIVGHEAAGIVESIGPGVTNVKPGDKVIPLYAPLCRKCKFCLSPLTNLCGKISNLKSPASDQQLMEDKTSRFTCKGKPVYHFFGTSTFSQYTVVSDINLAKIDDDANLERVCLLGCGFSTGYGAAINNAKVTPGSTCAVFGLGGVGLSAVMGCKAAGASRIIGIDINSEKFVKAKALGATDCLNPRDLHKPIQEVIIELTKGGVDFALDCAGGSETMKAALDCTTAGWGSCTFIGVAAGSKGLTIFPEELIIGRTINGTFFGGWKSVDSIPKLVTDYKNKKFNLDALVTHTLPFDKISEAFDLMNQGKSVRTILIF
Experimental: as §1, §3, §4

Class II ADH [3] = biological target: T3, Class II ADH (Homo sapiens, UniProt P08319); assay: Inhibition of Class II ADH; format: biochemical; parameters: was used to purify Class II ADH from human livers; from tissue; host or cells: human liver
T3 sequence (P08319 2-380 limits assumed): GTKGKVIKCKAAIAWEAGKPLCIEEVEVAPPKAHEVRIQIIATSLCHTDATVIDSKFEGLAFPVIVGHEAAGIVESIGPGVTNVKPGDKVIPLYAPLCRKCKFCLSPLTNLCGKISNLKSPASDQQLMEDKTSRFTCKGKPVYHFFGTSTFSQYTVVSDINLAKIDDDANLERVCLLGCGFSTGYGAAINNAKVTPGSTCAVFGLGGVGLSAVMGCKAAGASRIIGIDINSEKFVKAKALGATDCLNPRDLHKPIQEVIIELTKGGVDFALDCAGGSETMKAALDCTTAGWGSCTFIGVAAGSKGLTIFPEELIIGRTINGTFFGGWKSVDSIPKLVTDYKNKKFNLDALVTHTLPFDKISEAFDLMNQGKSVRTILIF
Experimental: as §1, §2
(§5) The values for these constants were determined with purified Class II ADH or a mixture of purified Class I isozymes, under the fluorometric assay conditions described above in Example 1.

β1 β1 ADH (Class I) = assay: Inhibition of β1β1 (ββ) ADH; format: biochemical, human
Experimental: as §1, §2

Class I ADH [4] = assay: Inhibition of Class I ADH; format: biochemical, human; details: for Class I ADH activity abolished: 0.2 mM inhibitor
Experimental: as §1, §2, §5

Class III ADH = biological target: T4, Class III ADH (Homo sapiens, UniProt P11766); assay: Inhibition of Class III ADH; format: biochemical
T4 construct: Adult human livers were obtained at autopsy; from tissue; host or cells: human liver obtained at autopsy
T4 sequence (P11766 2-374 limits assumed): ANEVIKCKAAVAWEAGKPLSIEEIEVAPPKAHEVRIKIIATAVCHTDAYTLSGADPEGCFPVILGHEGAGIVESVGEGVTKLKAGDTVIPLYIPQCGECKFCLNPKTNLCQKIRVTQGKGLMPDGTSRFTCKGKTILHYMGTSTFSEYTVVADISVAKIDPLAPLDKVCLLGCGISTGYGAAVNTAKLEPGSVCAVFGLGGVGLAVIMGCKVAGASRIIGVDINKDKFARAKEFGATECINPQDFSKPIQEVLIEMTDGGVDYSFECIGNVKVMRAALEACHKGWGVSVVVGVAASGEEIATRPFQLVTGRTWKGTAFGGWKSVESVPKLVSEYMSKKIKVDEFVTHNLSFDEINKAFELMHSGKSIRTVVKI
Experimental: With a high Km value of >0.5 mM, substrate IIA is completely insensitive for Class III ADH. Because Class III ADH has greater hydrophobic selectivity than Classes I and II ADH, naphthaldehydes and quinoline aldehydes which have aliphatic side chains may provide adequate sensitivity for measuring the amount of Class III ADH in serum. In addition because of its greater hydrophobic selectivity, inhibitor compounds such as 4-alkylpyrazoles having aliphatic side chains of 5 carbons (e.g., 4-PeP) or greater may provide, under certain conditions and at certain concentrations, adequate selectivity for measuring Class III ADH in the presence of Classes I and II. […] At 100 μM 4-PeP, the values for inhibition are: Classes I and II, >90%; Class III <10%. Thus, under certain conditions 4-PeP is clearly useful as a selective inhibitor of Class I and II activities, leaving >90% of Class III activity intact and measurable.

Class I ADH [5] = assay: Inhibition of Class I ADH; format: biochemical, human
[6] = Spectral parameters for absorption and fluorescence of ADH substrates and products; format: physicochemical; details: for Absorption εmax / Absorption λmax / Fluorescence .phi. (quantum yield) / Fluorescence λmax: Mes buffer (45 mM), pH 7.0
Experimental: The spectral parameters for 4-methoxy-1-naphthaldehyde (IA), 6-methoxy-2-naphthaldehyde (IIA) and their reduction products (IB and IIB, respectively) are shown in Table I.
Ultraviolet absorption spectra were measured on a Cary 219 or Hewlett-Packard 8451 spectrophotometer. Fluorescence measurements were made in a Perkin Elmer MPF3 spectrofluorometer, equipped with an Osram XBO 150 Watt Xenon lamp, an R446 photomultiplier, and thermostatted cell holder through which water was passed from a Poly-Temp circulator with the following spectrometer settings: excitation wavelength 316 nm. bandwidth 8 nm for both substrate IA and IIA; emission wavelength. 370 nm for substrate IA and 360 nm for substrate IIA, emission bandwidth 24 nm. Changes in fluorescence as a result of oxidation or reduction of the substrate was then measured in the ratio mode. Generally, for fluorometric reactions (see part 8 below). a sensitivity setting of 3 was used with compensation of fluorescence background by the zero suppression control of the instrument.
Aldehyde reduction was monitored by following the decrease of absorption at 340 nm in 40 mM Mes buffer, pH 7.1. in the presence of saturating NADH, 50 μM for Class I and 100 μM for Class II. […] Initial reaction rates were measured and kinetic parameters determined by conventional procedures as described by Segel, 1975, Enzyme Kinetics, pp. 591-597, Wiley, N.Y.

[7] = Stability of substrates and product solutions; format: physicochemical; details: 200-400 μM, water with <5% ethanol
Experimental: The dilute solutions (300 μM) were prepared by diluting 1 ml of the stock solution to 10 ml with water.
Concentrations were determined spectrophotometrically using a molar absorptivity of 5700 M^-1 cm^-1 at 296 nm for IB and 1270 M^-1 cm^-1 at 330 nm for IIB.

[8] = Fluorescence quenching of alcohol products in 50-fold diluted serum; format: physicochemical, human; details: 50-fold dilution of serum
From the text: Human serum is known to fluoresce over a broad spectral region (Wolfbeis et al., 1985. Anal. Chim. Acta. 167:203-315); the instrumental settings should therefore be chosen to optimize the signal/background noise ratio. […] A 50-fold dilution of serum minimizes interference and maximizes sensitivity. At this dilution, alcohol product IB is only quenched 15% while IIB is quenched 5%. […] The cause of this background fluorescence is unknown

Class II ADH [9] = biological target: T3, Class II ADH; details: Class II versus other ADH isozymes; cited from earlier work
[10] = 0.2 mM inhibitor, read-out: Class II ADH activity abolished
[11] = 1 mM 4-PeP, pH 10, 0.1M glycine buffer

Compound: CCCCCc1cn[nH]c1 [4-PeP, 4-Pentylpyrazole]
inhibition at 100 µM (Class III ADH; 100 μM 4-PeP): < 10%
inhibition at 1000 µM (Class III ADH; [11]): 60%
activity at 100 µM (Class III ADH; 4-PeP, under certain conditions, read-out: Class III activity left intact and measurable): > 90%
inhibition of IIA activity in sera ([1]; 0.2 mM 4-PeP, virtually all samples (44)): more than 90%
effect on activity towards IIA in normal sera ([2]; 0.2 mM 4-PeP): abolished
inhibition (Class I ADH [5]; 100 μM 4-PeP): > 90%
inhibition of activity (Class I ADH [5]; [11]): > 99.99%
inhibition at 100 µM (Class II ADH [3]; 100 μM 4-PeP): > 90%
inhibition at 200 µM (Class II ADH [3]; [10]): 95 to 98%
inhibition at 1000 µM (Class II ADH [3]; [11]): > 100%
inhibition of Class II activity (Class II ADH [3]; 4-PeP, substrate IIA): more than 90%
Class I ADH activity abolished (Class I ADH [4]): 95-98%
inhibition of Class I activity (Class I ADH [4]; 4-PeP, substrate IA): greater than 99%

Compound: O=Cc1ccccc1 [benzaldehyde]
effect on rate of reduction of IA in sera with elevated ADH [1]: diminished

Compound: CCCC=O [butyraldehyde]
effect on rate of reduction of IA in sera with elevated ADH [1]: diminished

Compound: CCO [ethanol]
Km for ethanol of Class II relative to other ADH isozymes (Class II ADH [9]): ≤ 100 times

Now from value to compound, other results behind:

4-MeP Inhibition (β2 β2 ADH (Class I); substrate IA, nm = not measurable): nm
inhibition at 200 µM (β2 β2 ADH (Class I); substrate IIA): 97%
effect on activity towards IIA in normal sera ([2]; 4-MeP): insensitive
inhibition at 200 µM (Class II ADH [3]; 0.2 mM 4-MeP, 15 μM IA or IIA, pH 7.6, read-out: inhibition of Class II ADH): 11%
inhibition at 200 µM (Class II ADH [3]; 0.2 mM 4-MeP, substrate IA, read-out: 4-MeP Inhibition): 11%
inhibition at 200 µM (Class II ADH [3]; 0.2 mM 4-MeP, substrate IIA, as fraction, read-out: c: degree of inhibition of Class II ADH): 11%
inhibition at 200 µM (Class II ADH [3]; [10]): 95 to 98%
Compound: Cc1cn[nH]c1 [4-MeP, 4-Methylpyrazole]
activity toward IIA remaining in sera ([1]; 0.2 mM 4-MeP, 105 samples): ≥ 70%
inhibition of IA activity in sera ([1]; 0.2 mM 4-MeP, majority of samples (83)): more than 90%
inhibition of IA reaction in sera with elevated ADH ([1]; 3 mM 4-MeP): > 95%
4-MeP Inhibition (β1 β1 ADH (Class I); 0.2 mM 4-MeP, substrate IA): ~ 95%
4-MeP Inhibition (β1 β1 ADH (Class I); 0.2 mM 4-MeP, substrate IIA): 98%
e: fraction of ββ-ADH activity uninhibited (β1 β1 ADH (Class I); 0.2 mM 4-MeP, substrate IIA): 0.025
inhibition of Class I ββ isozymes (β1 β1 ADH (Class I); words): inhibited readily
inhibition of all Class I isozymes (Class I ADH [4]; 0.2 mM 4-MeP, 15 μM IA or IIA, pH 7.6): more than 90%
4-MeP Inhibition (Class I ADH [4]; 0.2 mM 4-MeP, substrate IA): 98%
b: Class I activity fraction retained (Class I ADH [4]; 0.2 mM 4-MeP, substrate IA): 0.025
4-MeP Inhibition (Class I ADH [4]; 0.2 mM 4-MeP, substrate IIA, average for Class I except ββ): 92%
Class I ADH activity abolished (Class I ADH [4]): 95-98%
enhancement of assay specificity for Class I and II isozymes with the two substrates (Class I ADH [4]; 4-MeP, Class I relative to Class II): about 100 fold

Absorption εmax [6]: 5,400 M^-1 cm^-1
Absorption λmax [6]: 297 nm
Fluorescence .phi. (quantum yield) [6]: 0.36
Fluorescence λmax [6]: 370 nm
molar absorptivity ([6]; at 296 nm): 5700 M⁻¹ cm⁻¹
stability of product solutions [7]: stable for up to a week
fluorescence quenching [8]: 15%
Compound: COc1ccc(CO)c2ccccc12 [IB, 4-methoxy-1-naphthalenemethanol]

Absorption εmax [6]: 1,250 M^-1 cm^-1
Absorption λmax [6]: 329 nm
Fluorescence .phi. (quantum yield) [6]: 0.26
Fluorescence λmax [6]: 355 nm
molar absorptivity ([6]; at 330 nm): 1270 M⁻¹ cm⁻¹
stability of product solutions [7]: stable for up to a week
fluorescence quenching [8]: 5%
Compound: COc1ccc2cc(CO)ccc2c1 [IIB, 6-methoxy-2-naphthalenemethanol]
